Laboratory results taken from publication PMC5716539, “The acute glucose lowering effect of specific GPR120 activation in mice is mainly driven by glucagon-like peptide 1” (PLoS ONE, 2017).

Legend:
[1] = biological target: T1, human GPR120 (Homo sapiens, UniProt Q5NUL3); experiment: cAMP assay in CHO-hGPR120 cells; assay type: cell-based; conditions: cAMP production in CHO-hGPR120 cells; mean ± SEM
T1 construct: expressed in transfected cells
T1 sequence (Q5NUL3 1-361): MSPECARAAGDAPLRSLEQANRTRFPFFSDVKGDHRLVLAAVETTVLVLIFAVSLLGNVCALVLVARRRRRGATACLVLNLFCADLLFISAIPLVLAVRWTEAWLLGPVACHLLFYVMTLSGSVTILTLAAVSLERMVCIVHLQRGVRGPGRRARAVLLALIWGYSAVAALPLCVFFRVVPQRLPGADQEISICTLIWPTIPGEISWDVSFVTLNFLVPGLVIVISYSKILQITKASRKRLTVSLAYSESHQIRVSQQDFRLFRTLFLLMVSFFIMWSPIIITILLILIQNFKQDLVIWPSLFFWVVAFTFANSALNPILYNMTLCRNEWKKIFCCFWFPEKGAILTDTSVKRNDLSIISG
Procedure: CHO-hGPR120 or CHO cells in HBSS (Invitrogen), 20 mM HEPES (Invitrogen), pH 7.4, 0.01% BSA, 1.5 mM 3-isobutyl-1-methylxanthine (Sigma) and d2-labeled cAMP (CisBio) were incubated with GPR120 agonists (1% DMSO) for 45 min at room temperature in white small-volume 384-well plates (Greiner). The reaction was terminated by addition of conjugate and lysis buffer (CisBio) supplemented with anti-cAMP Cryptate (CisBio).

[2] = test system: control CHO cells; experiment: DMR assay in control CHO cells; assay type: cell-based, Chinese hamster; conditions: control CHO cells (empty vector)
Procedure: (§1) DMR (dynamic mass redistribution) was measured by resonant waveguide grating (RWG) using an Epic biosensor (Corning). CHO-hGPR120, CHO-mGPR120 and CHO cells in DMEM/F-12 (Invitrogen) were cultured in fibronectin coated 384-well Epic plates (Corning) at 37°C, 95% humidity and 5% CO2 for 5 hours with 10% FBS (Sigma), followed by 19 hours without FBS. CHO-hGPR40 cells were cultured at 37°C, 95% humidity and 5% CO2 for 20–24 hours in Ham’s F-12 Nutrient Mix with GlutaMAX (Invitrogen) supplemented with Non-Essential Amino Acids (Gibco) and 10% FBS (Sigma) in fibronectin coated 384-well Epic plates (Corning). Following the incubations culture media was replaced with HBSS (Invitrogen), 20 mM HEPES (Invitrogen), pH 7.4 and 1% DMSO and equilibrated to 26°C in the Epic for thirty min before addition of agonists and detection of DMR.

[3] = biological target: T2, mouse GPR120 (Mus musculus, UniProt Q7TMA4); experiment: DMR assay in CHO-mGPR120 cells; assay type: cell-based
T2 construct: expressed in transfected cells
T2 sequence (Q7TMA4 1-361): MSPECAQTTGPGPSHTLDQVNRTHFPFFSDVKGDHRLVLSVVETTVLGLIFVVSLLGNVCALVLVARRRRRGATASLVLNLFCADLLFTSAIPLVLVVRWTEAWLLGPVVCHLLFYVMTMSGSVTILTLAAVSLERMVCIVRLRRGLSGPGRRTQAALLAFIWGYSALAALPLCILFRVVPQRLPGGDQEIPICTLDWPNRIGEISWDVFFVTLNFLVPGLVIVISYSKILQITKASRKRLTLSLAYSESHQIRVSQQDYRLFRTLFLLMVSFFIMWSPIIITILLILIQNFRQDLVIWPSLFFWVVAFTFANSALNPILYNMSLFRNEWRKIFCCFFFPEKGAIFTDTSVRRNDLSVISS
Procedure: as §1

[4] = biological target: T1, human GPR120; experiment: Calcium mobilization assay in CHO-hGPR120 cells; assay type: cell-based; conditions: for Calcium mobilization after Gαq inhibition: CHO-hGPR120 cells pre-treated with 1 μM QIC; for EC50: CHO-hGPR120 cells, mean ± SEM
Procedure: CHO-hGPR120 and CHO cells were cultured in DMEM/F-12 (Invitrogen) with 10% FBS (Sigma) and HEK293-mGPR40 in DMEM (Invitrogen) supplemented with 10% FBS in 384-well poly-D-Lysin coated microplates (Greiner) at 37°C, 95% humidity and 5% CO2. After 19 hours cell media was replaced with Calcium4 dye (Molecular Devices) in HBSS (Invitrogen), 20 mM HEPES (Invitrogen), pH 7.4 and 1.25 mM Probenecid (Sigma). After 1 hour at room temperature agonists were added and calcium mobilization was detected as change in fluorescence (λex = 488 and λem = 540 nm) using a FLIPR^TETRA (Molecular Devices).

[5] = test system: lean male mice; experiment: Oral glucose tolerance test (OGTT) in lean male mice; assay type: in vivo, mouse; conditions: for Glucose excursions following oral glucose administration: oral dosing, different doses, glucose 2 g/kg, vs vehicle; for Dose at which significantly improved glucose tolerance was observed: oral, OGTT lean male mice; for Calculated unbound effective concentration, Ce50: unbound concentration giving 50% decrease in blood glucose over time vs vehicle, turnover model
Procedure: (§2) OGTT tests were performed in lean male mice (body weight 27-32g), randomized on body weight, fasted for 16 hours. An oral glucose load (2 g/kg) was administered 30 min (AZ13581837, 7 and 18 mg/kg) or 60 min (Metabolex-36, 10, 30 and 100 mg/kg) after oral dosing with the GPR120 agonists and blood glucose was measured at -30, 0, 10, 25, 40, 60 and 90 min post glucose administration. The specificity of Metabolex-36 was examined in male GPR120 null mice. The administration time for the GPR120 agonists was optimized depending on the pharmacokinetic profile of each compound, in order to maximize the plasma exposure of the compounds during the experiments.
For OGTT a turnover model with a log-linear drug function was used to model the glucose lowering effect determined as the effective concentration resulting in a 50% decrease in blood glucose over time (Ce50) compared to vehicle. All analyses were performed using Phoenix WinNonlin 6.4 (Certara, Princeton, NJ, USA). The area under the glucose excursion curve was calculated and used for statistical evaluation.

[6] = test system: GPR120 null mice; experiment: OGTT in male GPR120 null mice; assay type: in vivo, mouse
Procedure: as §2

[7] = test system: mouse islets; design: method as in PMID 24663807; conditions: cited from earlier work

| Compound | EC50 [1] [nM] | DMR response in control CHO cells [2] | EC50 [3] [nM] | Calcium mobilization after Gαq inhibition [4] | EC50 [4] [nM] | Glucose excursions following oral glucose administration [5] | Dose at which significantly improved glucose tolerance was observed [5] [mg/kg] | Calculated unbound effective concentration, Ce50 [5] [µM] | Effect on oral glucose tolerance in GPR120 null mice [6] | Somatostatin secretion in vitro from mouse islets [7] |
| --- | --- | --- | --- | --- | --- | --- | --- | --- | --- | --- |
| C#Cc1cc(Oc2cccnc2)cc(N2Cc3ccccc3S2(=O)=O)c1 [AZ13581837, 2-(3-ethynyl-5-(3-pyridyloxy)phenyl)-3H-1,2-benzothiazole 1,1-dioxide] | 60 ± 7 | without activity | 4.3 ± 0.6 | completely abolished | 120 ± 20 | concentration dependent reduction | 18 | 0.02 |  |  |
| 3-(3,5-difluoro-4-((3-methyl-1-phenyl-1H-pyrazol-5-yl)methoxy)phenyl)-2-methylpropanoic acid [Metabolex-36] | 6700 ± 1000 | without activity | 130 ± 20 | completely abolished | 1800 ± 190 | concentration dependent reduction | 30 | 0.6 | no effect | reduce somatostatin secretion |
